Test results as given in patent US20100217003A1, “1,2,3,4-TETRAHYDROISOQUINOLINE DERIVATIVES HAVING EFFECTS OF PREVENTING AND TREATING DEGENERATIVE AND INFLAMMATORY DISEASES” (priority 2006, published 2010).

Key:
TNF-α mRNA = experiment: Expression of TNF-α genes in LPS-stimulated BV-2 cells (RT-PCR); type: cell-based, mouse
Method: (§1) RT-PCR for GTPCH, iNOS, TNF-α, IL-1β and COX-2
(§2) 5 ? each of total RNA samples isolated from BV-2 cells were subjected to reverse-transcription (RT), and then polymerase chain reaction (PCR) for 30 cycles under the conditions of 94° C. for 30 seconds, 60° C. for 40 seconds and 72° C. for one minute. Primers used in the PCR were as follows: iNOS (forward, ATGTCCGAAG-CAAACATCAC; reverse, TAATGTC CAGGAAGTAGGTG), TNF-α (forward, CA-[…] reverse, CAGAGCAATGACTC-CAAAGTAGACCT), IL-1β (forward, […]; reverse, CAGGACAGGTAT AGATTCTTTCCTTT), COX-2 (forward, […]; reverse, […]), GTPCH (forward, GGATACCAGGAGACCAT CTCA; reverse, TAGCATGGTGC-TAGTGACAGT). RT-PCR for B2M was simultaneously performed as internal control. The PCR products were subjected to electrophoresis in a 1.5% agarose gel, thereby confirming the presence of a desired size of single band.
(§3) The assay was performed to determine whether EHMTIQ (11a) affects TNF-α production in an activated microglial cell. LPS-stimulated BV-2 cell samples were treated with various concentrations of EHMTIQ (11a) and the expression of TNF-α genes was estimated by RT-PCR. The results are illustrated in FIG. 3.

[1] = tested on: mouse model of Parkinson's disease induced by MPTP; experiment: Mouse model of Parkinson's disease induced by MPTP (immunostaining of substantia nigra and striatum); type: in vivo
IL-1β mRNA = experiment: Expression of IL-1β genes in LPS-stimulated BV-2 cells (RT-PCR); type: cell-based, mouse
Method: as §1, §2
as §3, with “to investigate” for “to determine”, “affects IL-β” for “affects TNF-α”, “cell smaples” for “cell samples”, “of IL-1β” for “of TNF-α”, “FIG. 4.” for “FIG. 3.”

BV-2 cell = experiment: Inhibitory effect on NO production in LPS-stimulated BV-2 microglial cells (Griess); type: cell-based, mouse
Method: BV-2 microglial cell line, CATH.a neuron line and SK-N-BE(2)C neuron line were cultured in Dulbecco's modified Eagle's medium (DMEM) supplemented with 10% bovine serum, […] penicillin, and 10 ? /ml streptomycin at 37° C. in an atmosphere of 5% CO2 and 95% air. The cells were planted on a polystyrene petri dish at the following densities: BV-2 (2.5×10^5 cells/24 well or 2.6×10^6 cells/60 mm dish; SK− N-BE(2)C (1.5×10^5 cells/24 well); and CATH.a (2.4×10^4 cells/96 well).
Measurement of NO Production
200 ? of cell culture medium fraction and 100 ? of Griess reagent (2.5% […], 1% sulfanilamide and 0.1% naphthylethylenediamine dihydrochloride) were mixed in a 96-well microtiter plate, and the absorbance of a sample was read at 540 nm using a microtiter plate reader (multi-well spectrophotometer). The concentration of nitrite was calculated using a standard curve for sodium nitrite.
To determine whether EHMTIQ (11a) inhibits NO production in an activated […] cell, a mouse microglial cell line, BV-2, was used in this assay. Lipopolysaccharide (LPS)-stimulated BV-2 cell samples were treated with various concentrations of EHMTIQ (11a) and then the NO level of a sample was measured. The results are illustrated in FIG. 1.

SK-N-BE(2)C cells = experiment: Protective effect against neuron death due to substances released from activated microglial cells (LDH); type: cell-based; details: culture medium from 50 EHMTIQ + LPS-treated BV-2 cells
Method: Measurement of Lactate Dehydrogenase (LDH) Activity
0.26 mM NADH, 2.87 mM sodium pyruvate and 100 mM potassium phosphate buffer (pH 7.4) were added to cell culture medium (50 ? ) to make a total volume of 200 ? , and then cultured at RT. The resultant NAD^+ was measured at 340 nm for 5 minutes at 2-second intervals using a microplate spectrophotometer (SPECTRA MAX 340 pc; Molecular Devices, Menlo Park, Calif., USA).
BV-2 microglial cells were planted in a 24-well Petri dish at a density of 2.5×10^5 cells/ml. After an overnight culture, the cells were treated with […] lipopolysaccharide and EHMTIQ (11a) and then cultured for 12 more hours. At the same time, SK-N-BE(2)C cells were planted in a 24-well Petri dish at 0.5×10^5 cells/ml and cultured for 24 hours. The culture medium for SK-N-BE(2) C cells was removed and the culture medium for BV-2 was added thereto. After 24 hours, the death rate of SK-N-BE(2)C cells was measured using LDH.
The assay was performed to determine whether EHMTIQ (11a) protects a dopaminergic cell from injuries due to inflammatory substances released from an activated microglial cell. SK-N-BE(2)C cells were transferred to a culture medium containing substances released from LPS-stimulated BV-2 cells, and the cell death rate was measured by activity of LDH contained in the culture medium and compared with that in the EHMTIQ (11a)-treated BV-2 culture medium.

Question: How did the “mRNA level of TNF-α” value (TNF-α mRNA; 2.5 (unit as image)) turn out when CCC(=O)N1CCc2cc(OC)c(O)cc2C1 [EHMTIQ (11a), 2-ethylcarbonyl-7-hydroxy-6-methoxy-1,2,3,4-tetrahydroisoquinoline] was run?
Answer: Its value is “decreased the mRNA level to a statistically significant level”.

Question: And the “mRNA level of TNF-α compared to the control only treated with LPS” value (TNF-α mRNA; 5 (unit as image))?
Answer: Its value is 74±1%.

Question: What about the “mRNA level of TNF-α compared to the control only treated with LPS” value (TNF-α mRNA; 100 (unit as image)) of the same compound?
Answer: The value was 36±1%.

Question: What about the “activation of microglial cells in the substantia nigra (Iba-1 immunostaining)” value ([1]; MPTP mouse (FIG. 13)) of the same compound?
Answer: The value was “inhibitory effect”.

Question: And the “dopaminergic neurons in the substantia nigra (TH immunostaining)” value ([1]; MPTP mouse (FIG. 14))?
Answer: Its value is “protective effect”.

Question: And the “degeneration of dopaminergic neurons in the substantia nigra (fluoroJade C and TH double labelling)” value ([1]; MPTP mouse (FIG. 14, right panels))?
Answer: Its value is “inhibitory effect”.

Question: What about the “dopamine nerve terminals in the striatum (TH immunostaining)” value ([1]; MPTP mouse (FIG. 15)) of the same compound?
Answer: The value was “protective effect”.

Question: What about the “mRNA level of IL-1β” value (IL-1β mRNA; 2.5 (unit as image)) of the same compound?
Answer: Its value is 74±0.7%.

Question: What about the “mRNA level of IL-1β” value (IL-1β mRNA; 100 (unit as image)) of the same compound?
Answer: The value was “significant decrease in the LPS effect”.

Question: And the “NO production induced by LPS, compared with the control not treated with EHMTIQ” value (BV-2 cell; 5 (concentration unit printed as image))?
Answer: The value was 63±4%.

Question: What about the NO production (BV-2 cell; 100 (concentration unit printed as image)) of the same compound?
Answer: Its NO production is “inhibit NO production to the control level”.

Question: What about the IC50 (BV-2 cell; Mus musculus, unit printed as image) of the same compound?
Answer: The IC50 was 2.81 µM.

Question: What about the “cell injury rate of SK-N-BE(2)C cells” value (SK-N-BE(2)C cells) of the same compound?
Answer: Its value is “reduced”.
